The record followed here is patent publication US7229757B2, “Compounds displayed on icosahedral phage and methods of using same” (Xenoport, Inc., priority 2001, dated 2007).

The test addresses T1, human folate receptor (Homo sapiens, UniProt P15328).
T1 construct: KB cells, which express high levels of the human folate receptor; endogenous in cells; host or cells: KB cells
Nature of the test: screening of the 36-member folate analog library on T7 phage for uptake into KB cells. The class given is cell-based. Conditions: compound displayed on T7 phage. As for the experimental part: KB cells were grown adherently in folate-free RPMI with 5% fetal bovine serum in a T75 flask. Prior to screening the compound library the media was removed and replaced with folate-free RPMI containing 0.1% BSA. An aliquot of the folate-analog phage library (˜10^9 pfu) was added to the flask containing 10^7 KB cells and incubated for 2 h at 37° C. Following the incubation period, the cells were detached from the flask by adding PBS containing 5 mM EDTA and incubating for 5 minutes at 37° C. The cell suspension was transferred to a tube and cells were pelleted by centrifugation. The cells were washed 3× with PBS followed by a single wash with “stripping” buffer (50 mM glycine, pH 2.8, 500 mM NaCl, 2M urea, 2% polyvinylpyrolidone) to remove phage particles that were both specifically and non-specifically bound to the surface of the cells. The cell suspension was neutralized by the addition of one half volume of 1 M Tris and centrifuged to pellet the cells. Cells were then lysed with PBS containing 1% SDS to recover phage that were endocytosed. To determine the number of recovered phage particles the lysate was titered by preparing a series of dilutions, infecting BL21 cells and plating on LB agar plates. The plates were incubated for 2-3 h at 37° C. until plaques were clearly visible. […]

T1 sequence (P15328 25-234): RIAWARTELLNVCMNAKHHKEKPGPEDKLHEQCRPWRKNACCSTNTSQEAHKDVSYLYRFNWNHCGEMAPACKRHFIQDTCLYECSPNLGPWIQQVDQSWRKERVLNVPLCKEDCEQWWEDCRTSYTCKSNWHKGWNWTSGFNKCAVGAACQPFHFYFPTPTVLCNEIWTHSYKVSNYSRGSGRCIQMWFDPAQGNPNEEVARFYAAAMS

As for `NNC(=O)COCCOCCNC(=O)CCC(NC(=O)c1ccc(NCc2cnc3nc(N)nc(O)c3n2)cc1)C(=O)O` (centres unmarked) [folate-hydrazide, Folate-hydrazide], the “share of sequenced random clones from the lysate carrying the clone's DNA tag” value (21 sequences) is on record as 38%. Besides, the “enrichment of phage clone in the population recovered from the cell lysate (hybridization to library archive array)” value (2 h at 37° C.) is listed as “the only one enriched”.
